Reference: EP4603105A1, “PHARMACEUTICAL COMPOSITION CONTAINING CYCLIC COMPOUND HAVING SELECTIVE KRAS INHIBITORY EFFECT AGAINST HRAS AND NRAS” (CHUGAI SEIYAKU KABUSHIKI KAISHA, priority 2022, dated 2024)
pIC50: −log10 of the molar value. *1 amine or outer side, *2 acyl side, *3 side chain or, on linkers, in order; H or OH if unused. Where a SMILES comes first, the peptide text is derived from it. Bridges are numbered along the chain shown (N, C = ends). [ ]: non-standard residue; d: D form. The star is where a group is joined. hPhe(3-Cl-4-CF3) = N[C@@H](CCc1ccc(C(F)(F)F)c(Cl)c1)C(=O)O; NEtPhe(4-CF3) = CCN[C@@H](Cc1ccc(C(F)(F)F)cc1)C(=O)O; NEtPhe(4-Me) = CCN[C@@H](Cc1ccc(C)cc1)C(=O)O; NMePhe(4-Me) = CN[C@@H](Cc1ccc(C)cc1)C(=O)O; X30 = CCN([C@H](C(=O)[*:2])C1CCCC1)[*:1]; NMeGly(cPent) = CN[C@H](C(=O)O)C1CCCC1; NMeF = CN[C@@H](Cc1ccccc1)C(=O)O; NMeD = CN[C@@H](CC(=O)O)C(=O)O; NMeL = CN[C@@H](CC(C)C)C(=O)O; Morpholide = C1CN(*)CCO1; NMeA = CN[C@@H](C)C(=O)O; Ac5c = NC1(C(=O)O)CCCC1; Aze = O=C(O)[C@@H]1CCN1; NEtG = CCNCC(=O)O; Sar = CNCC(=O)O

Experiments:
[1] = target: GDP-bound NRAS wild-type protein (Homo sapiens, UniProt P01111); assay: Binding to NRAS by surface plasmon resonance (SPR), KD and KD ratio to KRAS; conditions: ratio of KD for GDP-bound NRAS wild-type protein to KD for KRAS
Protocol: (§1) Surface plasmon resonance was used to analyze the binding affinity of compounds for KRAS, NRAS, and HRAS. The apparatus used was Biacore 8K, 8K+, or T200 (GE Healthcare), and the running buffer used was HBS (10 mM HEPES-NaOH, 150 mM NaCl, pH 7.4) containing 1 mM DTT, 10 mM MgCl2, 0.01% Tween 20, 10 µM GDP, and 4% DMSO.
(§2) Biotinylated Avi-tag fusion KRAS, NRAS, and HRAS proteins were expressed in E. coli BL21 (DE3) strains, and after cells were homogenized, they were purified using Streptavidin Mutein Matrix and Superdex 75. After purification, GDP-loaded KRAS, NRAS, and HRAS proteins were immobilized on the surface of Sensor Chip CAP (Cytiva) coated with Biotin CAPture Reagent in an immobilization amount of about 100 to 300 RU. Binding of each compound was evaluated by the Single Cycle Kinetics method, and a running buffer or a compound solution was added to the RAS protein non-immobilized surface and the immobilized surface to obtain a binding response. The flow rate was set to 100 µL/min, and in the compound-adding cycle, compound solutions having different concentrations were intermittently added for 75 seconds each, starting from a low concentration. […] In the blank cycle, a running buffer was intermittently added and not the compound solution. The Biotin CAPture Reagent and RAS proteins were immobilized for each cycle, and at the end of each cycle, the sensor chip was regenerated by the regeneration solution appended to the Biotin CAPture Kit (Cytiva). Measurement was carried out at 30°C.
(§3) The resulting sensorgram was subjected to curve fitting based on a 1:1 binding model on Biacore Insight Evaluation Software or T200 Evaluation Software, and thereby the dissociation constant KD of each compound with respect to KRAS, NRAS, and HRAS was determined. […] Blank indicates a compound from which the KD value with respect to NRAS or HRAS was not obtained.

HRAS wild-type protein = HRAS wild-type protein (Homo sapiens, UniProt P01112); assay: Binding to HRAS by surface plasmon resonance (SPR), KD and KD ratio to KRAS
Protocol: as §1, §2, §3

[2] = system: human lung cancer strain NCI-H441; type: cell-based
Protocol: A test compound was dispensed into a U-bottom 384-well plate as 40 nL serially diluted dimethyl sulfoxide solutions using a liquid handler Echo (LABCYTE). […] This cell suspension was dispensed in an amount of 40 µL per well into a plate containing the test compound, and cultured at 37°C in a 5% carbon dioxide gas incubator. Four days later, 20 µL of CellTiter-Glo (registered trademark) (Promega) was added to each well and […] was measured. […]

[3] = ratio of KD for HRAS wild-type protein to KD for KRAS

Sequence of HRAS wild-type protein (P01112 whole entry): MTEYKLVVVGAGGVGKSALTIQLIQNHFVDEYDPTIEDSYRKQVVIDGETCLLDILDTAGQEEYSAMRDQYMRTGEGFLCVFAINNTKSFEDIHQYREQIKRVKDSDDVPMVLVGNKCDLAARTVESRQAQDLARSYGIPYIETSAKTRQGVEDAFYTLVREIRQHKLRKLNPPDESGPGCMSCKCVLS
Sequence of GDP-bound NRAS wild-type protein (P01111 whole entry): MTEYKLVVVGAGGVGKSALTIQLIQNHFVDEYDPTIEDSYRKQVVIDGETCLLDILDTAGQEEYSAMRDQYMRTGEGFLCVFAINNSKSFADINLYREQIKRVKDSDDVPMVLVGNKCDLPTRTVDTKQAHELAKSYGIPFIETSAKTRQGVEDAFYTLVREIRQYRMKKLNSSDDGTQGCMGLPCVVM

Structure (SMILES) | NRAS /KRAS [1] | HRAS /KRAS (HRAS wild-type protein; [3]) | pIC50 [2] | HRAS /KRAS (HRAS wild-type protein; ratio of KD value for HRAS wild-type protein to KD value for KRAS (SPR)) | HRAS /KRAS (HRAS wild-type protein; ratio of the KD value with respect to HRAS wild-type protein to the KD value with respect to KRAS)
CC[C@H](C)[C@@H]1NC(=O)[C@H](CC(C)C)N(C)C(=O)C[C@@H](C(=O)N2CCOCC2)N(C)C(=O)[C@H](C2CCCC2)N(C)C(=O)C2(CCCC2)NC(=O)[C@@H]2CCCN2C(=O)[C@H](CCc2ccc(C(F)(F)F)c(Cl)c2)NC(=O)CN(C)C(=O)[C@H](Cc2ccc(C)cc2)N(C)C(=O)[C@@H]2CCN2C(=O)[C@H](C)N(C)C1=O [PP0001] ([NMeL]I[NMeA][Aze][NMePhe(4-Me)][Sar][hPhe(3-Cl-4-CF3)]P[Ac5c][NMeGly(cPent)][NMeD]-Morpholide; lactam N-11) | C (A compound having a KD ratio of 0.1 or more and less than 3 is denoted as C) | C (A compound having a KD ratio of 0.1 or more and less than 3 is denoted as C) | 8.20 | – | –
CC[C@H](C)[C@@H]1NC(=O)[C@H](CC(C)C)N(C)C(=O)C[C@@H](C(=O)N2CCOCC2)N(C)C(=O)[C@H](C2CCCC2)N(C)C(=O)C2(CCCC2)NC(=O)[C@@H]2CCCN2C(=O)[C@H](CCc2ccc(C(F)(F)F)c(Cl)c2)NC(=O)CN(C)C(=O)[C@H](Cc2ccc(C(F)(F)F)cc2)N(CC)C(=O)[C@@H]2CCN2C(=O)[C@H](C)N(C)C1=O [PP0002] ([NMeL]I[NMeA][Aze][NEtPhe(4-CF3)][Sar][hPhe(3-Cl-4-CF3)]P[Ac5c][NMeGly(cPent)][NMeD]-Morpholide; lactam N-11) | C (A compound having a KD ratio of 0.1 or more and less than 3 is denoted as C) | C (A compound having a KD ratio of 0.1 or more and less than 3 is denoted as C) | 8.68 | – | –
CC[C@H](C)[C@@H]1NC(=O)[C@H](CC(C)C)N(C)C(=O)C[C@@H](C(=O)N2CCOCC2)N(C)C(=O)[C@H](C2CCCC2)N(C)C(=O)C2(CCCC2)NC(=O)[C@@H]2CCCN2C(=O)[C@H](CCc2ccc(C(F)(F)F)c(Cl)c2)NC(=O)CN(C)C(=O)[C@H](C2CCCC2)N(CC)C(=O)[C@@H]2CCN2C(=O)[C@H](C)N(C)C1=O [PP0003] ([NMeL]I[NMeA][Aze][X30][Sar][hPhe(3-Cl-4-CF3)]P[Ac5c][NMeGly(cPent)][NMeD]-Morpholide; lactam N-11) | C (A compound having a KD ratio of 0.1 or more and less than 3 is denoted as C) | C (A compound having a KD ratio of 0.1 or more and less than 3 is denoted as C) | 7.38 | – | –
CC[C@H](C)[C@@H]1NC(=O)[C@H](CC(C)C)N(C)C(=O)C[C@@H](C(=O)N2CCOCC2)N(C)C(=O)[C@H](C2CCCC2)N(C)C(=O)C2(CCCC2)NC(=O)[C@@H]2CCCN2C(=O)[C@H](CCc2ccc(C(F)(F)F)c(Cl)c2)NC(=O)CN(CC)C(=O)[C@H](Cc2ccc(C)cc2)N(C)C(=O)[C@@H]2CCN2C(=O)[C@H](C)N(C)C1=O [PP0004] ([NMeL]I[NMeA][Aze][NMePhe(4-Me)][NEtG][hPhe(3-Cl-4-CF3)]P[Ac5c][NMeGly(cPent)][NMeD]-Morpholide; lactam N-11) | C (A compound having a KD ratio of 0.1 or more and less than 3 is denoted as C) | C (A compound having a KD ratio of 0.1 or more and less than 3 is denoted as C) | 7.28 | – | –
CC[C@H](C)[C@@H]1NC(=O)[C@H](CC(C)C)N(C)C(=O)C[C@@H](C(=O)N2CCOCC2)N(C)C(=O)[C@H](C2CCCC2)N(C)C(=O)C2(CCCC2)NC(=O)[C@@H]2CCCN2C(=O)[C@H](CCc2ccc(C(F)(F)F)c(Cl)c2)NC(=O)CN(CC)C(=O)[C@H](Cc2ccc(C)cc2)N(CC)C(=O)[C@@H]2CCN2C(=O)[C@H](C)N(C)C1=O [PP0006] ([NMeL]I[NMeA][Aze][NEtPhe(4-Me)][NEtG][hPhe(3-Cl-4-CF3)]P[Ac5c][NMeGly(cPent)][NMeD]-Morpholide; lactam N-11) | C (A compound having a KD ratio of 0.1 or more and less than 3 is denoted as C) | C (A compound having a KD ratio of 0.1 or more and less than 3 is denoted as C) | 7.69 | – | –
CC[C@H](C)[C@@H]1NC(=O)[C@H](C)N(C)C(=O)C[C@@H](C(=O)N2CCOCC2)N(C)C(=O)[C@H](C2CCCC2)N(C)C(=O)C2(CCCC2)NC(=O)[C@@H]2CCCN2C(=O)[C@H](CCc2ccc(C(F)(F)F)c(Cl)c2)NC(=O)CN(C)C(=O)[C@H](Cc2ccc(C)cc2)N(CC)C(=O)[C@@H]2CCN2C(=O)[C@H](C)N(C)C1=O [PP0007] ([NMeA]I[NMeA][Aze][NEtPhe(4-Me)][Sar][hPhe(3-Cl-4-CF3)]P[Ac5c][NMeGly(cPent)][NMeD]-Morpholide; lactam N-11) | C (A compound having a KD ratio of 0.1 or more and less than 3 is denoted as C) | C (A compound having a KD ratio of 0.1 or more and less than 3 is denoted as C) | 8.32 | – | –
CC[C@H](C)[C@@H]1NC(=O)[C@H](CC(C)C)N(C)C(=O)C[C@@H](C(=O)N2CCOCC2)N(C)C(=O)[C@H](C2CCCC2)N(C)C(=O)C2(CCCC2)NC(=O)[C@@H]2CCCN2C(=O)[C@H](CCc2ccc(C(F)(F)F)c(Cl)c2)NC(=O)CN(C)C(=O)[C@H](Cc2ccccc2)N(C)C(=O)[C@@H]2CCN2C(=O)[C@H](C)N(C)C1=O [PP0011] ([NMeL]I[NMeA][Aze][NMeF][Sar][hPhe(3-Cl-4-CF3)]P[Ac5c][NMeGly(cPent)][NMeD]-Morpholide; lactam N-11) | C (A compound having a KD ratio of 0.1 or more and less than 3 is denoted as C) | C (A compound having a KD ratio of 0.1 or more and less than 3 is denoted as C) | 8.24 | – | –
CCO[C@@H]1C[C@H]2C(=O)NC3(CCC3)C(=O)N(C)[C@@H](C(CC)CC)C(=O)N3CCC[C@@H]3CC(=O)N(C)[C@@H](CC)C(=O)N[C@@H]([C@@H](C)CC)C(=O)N(C)CC(=O)N(C)[C@H]3C/C=C\CCN(C3=O)[C@@H](Cc3ccc(C(F)(F)F)cc3)C(=O)N(C)CC(=O)N[C@@H](CCc3cc(F)c(C(F)(F)F)c(F)c3)C(=O)N2C1 [PP1607] | – | – | 7.41 | A (a compound having 10 or more and less than 20 is denoted as A) | –
CCO[C@@H]1C[C@H]2C(=O)NC3(CC(C)(C)C3)C(=O)N(C)[C@@H](C3CCCC3)C(=O)N(C)[C@H](C(=O)N(C)CC)CC(=O)N(C)[C@@H](C3CCC3)C(=O)N[C@@H]([C@@H](C)CC)C(=O)N(C)CC(=O)N(C)[C@H]3C/C=C\CCN(C3=O)[C@@H](Cc3ccc(C(F)(F)F)cc3)C(=O)N(C)CC(=O)N[C@@H](CCc3ccc(C(F)(F)F)c(OC)c3)C(=O)N2C1 [PP1985] | – | – | 7.75 | – | B (a compound having 3 or more and less than 10 is denoted as B)
CCC[C@H]1C(=O)N[C@@H]([C@@H](C)CC)C(=O)N(C)CC(=O)N(C)[C@H]2C/C=C\CCN(C2=O)[C@@H](Cc2ccc(C)cc2)C(=O)N(C)CC(=O)N[C@@H](CCc2ccc(Cl)c(OC)c2)C(=O)N2C[C@H](OCC)C[C@H]2C(=O)NC2(CC(C)(C)C2)C(=O)N(C)[C@@H](C(CC)CC)C(=O)N(C)[C@H](C(=O)N(C)C)CC(=O)N1C [PP2791] | – | A (a compound having 10 or more and less than 20 is denoted as A) | 7.05 | – | –
CCO[C@@H]1C[C@H]2C(=O)NC3(CC(C)(C)C3)C(=O)N(C)[C@@H](C3CCCC3)C(=O)N(C)[C@H](C(=O)N(C)C)CC(=O)N(C)[C@H]3CCCCCCc4ccc(cc4)C[C@@H](C(=O)N(C)CC(=O)N[C@@H](CCc4ccc(C(F)(F)F)c(OC)c4)C(=O)N2C1)N1CC/C=C\C[C@@H](C1=O)N(C)C(=O)CN(C1CC1)C(=O)[C@H]([C@@H](C)CC)NC3=O [PP3070] | – | B (a compound having 3 or more and less than 10 is denoted as B) | 8.85 | – | –
CCC[C@H]1C(=O)N[C@@H]([C@@H](C)CC)C(=O)N(C)CC(=O)N(C)[C@H]2C/C=C\CCN(C2=O)[C@@H](Cc2ccc(C(F)(F)F)cc2)C(=O)N(C)CC(=O)N[C@@H](CCc2ccc(C(F)(F)F)c(OC)c2)C(=O)N2C[C@H](OCC)C[C@H]2C(=O)N(C)C2(CCC2)C(=O)N(C)[C@@H](C2CCCC2)C(=O)N(C)[C@H](C(=O)N2CCCCC2)CC(=O)N1C [PP3103] | – | A (a compound having 10 or more and less than 20 is denoted as A) | 7.67 | – | –
